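Dose response: 5 concentrations. Exposure: 48 h. Format: 96-well plates. Endpoint: linear interpolation; highest concentration if not reached. Definition used: TGI = concentration required for complete inhibition of growth.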 Square brackets hold non-standard residues; d marks the D form. Peptide text beside a SMILES is read from it. Phe(4-NO2) = N[CH](Cc1ccc([N+](=O)[O-])cc1)C(=O)O
Columns and labels:
Assay in all cases: NCI-60 cell line screen, 48 h
[1] = tested on: COLO 205 colon
[2] = tested on: DU-145 prostate
[3] = tested on: LOX IMVI melanoma
[4] = tested on: MCF7 breast
[5] = tested on: MOLT-4 leukemia
[6] = tested on: NCI-H226 lung
[7] = tested on: OVCAR-4 ovarian
[8] = tested on: OVCAR-8 ovarian
[9] = tested on: SK-MEL-5 melanoma
[10] = tested on: UACC-257 melanoma
[11] = tested on: NCI-H522 lung
[12] = tested on: BT-549 breast
[13] = tested on: RPMI-8226 leukemia

SMILES | TGI [1] [µM] | TGI [2] [µM] | TGI [3] [µM] | TGI [4] [µM] | TGI [5] [µM] | TGI [6] [µM] | TGI [7] [µM] | TGI [8] [µM] | TGI [9] [µM] | TGI [10] [µM] | TGI [11] [µM] | TGI [12] [µM] | TGI [13] [µM]
CC1=CC(=O)/C(=C/N2C(=O)CNC2=S)C(=O)O1 | > 100 | > 100 | > 100 | > 100 | > 100 | > 100 | > 100 | > 100 | > 100 | > 100 | – | – | –
COc1ccc(NC(=O)CC(=O)N2N=C(C)C(N=Nc3ccc(C(=O)O)cc3)C2=O)cc1 (stereo not drawn) | > 100 | > 100 | > 100 | > 100 | – | – | > 100 | > 100 | > 100 | > 100 | > 100 | – | –
Cn1c(O)c(C=Nc2ccc(Cl)cc2Cl)c(=O)n(C)c1=O | > 100 | – | > 100 | > 100 | > 100 | > 100 | > 100 | > 100 | > 100 | > 100 | > 100 | > 100 | > 100
CCOC(OCC)[C@H](N)[C@@H](O)[C@@H](O)[C@H]1COC(C)(C)O1 | > 100 | > 100 | > 100 | > 100 | > 100 | > 100 | > 100 | > 100 | > 100 | > 100 | – | – | > 100
C(#C[C@@]12CCC[C@@H]1N(Cc1ccccc1)CO2)c1ccc2c(c1)OCO2 | > 100 | > 100 | – | > 100 | > 100 | > 100 | > 100 | > 100 | – | > 100 | – | > 100 | > 100
NS(=O)(=O)c1ccc(N2C(=O)C(=O)N(c3ccccc3)C2=S)cc1 | > 100 | > 100 | > 100 | – | > 100 | > 100 | > 100 | > 100 | > 100 | > 100 | > 100 | – | > 100
COc1ccc2c(c1)OC1c3ccccc3OCC21 (stereo not drawn) | > 100 | > 100 | > 100 | > 100 | 81.9 | > 100 | > 100 | > 100 | > 100 | > 100 | – | > 100 | > 100
CNC(=O)OCC1=C(COC(=O)NC)C(C)N(c2ccccc2)C1 (stereo not drawn) | 48.5 | > 100 | > 100 | 58.3 | 71.1 | 77.3 | > 100 | > 100 | 41.6 | > 100 | – | > 100 | 83
Clc1nc(Nc2nc3ccccc3[nH]2)nc(Cl)c1-c1ccccc1 | 51.3 | > 100 | – | – | > 100 | 46.4 | 32.8 | 69.4 | 53.5 | 80.2 | 42.5 | 42.5 | > 100
COC(=O)[C@]1(Cc2ccc3ccccc3c2)CCCCCCN1C(=O)c1ccccc1 | 24.5 | > 68.1 | 30.3 | > 49.1 | > 47.7 | > 52.8 | 26 | > 48.5 | > 100 | 25 | – | > 54 | 17.9
COc1cc(OC)cc(C(=O)Cc2c(C(=O)c3ccccc3)c3ccccc3n2C(=O)c2ccccc2)c1 | 93.4 | – | > 100 | – | > 100 | > 100 | > 100 | > 100 | 35.1 | – | 45 | – | > 100
CCCCC(N)CSSCC(N)CCCC (stereo not drawn) | > 100 | – | 32.1 | – | 47.9 | 43.6 | 32.6 | > 100 | 55.7 | 44.9 | 29.7 | – | 61.5
COc1ccc2c(c1)C(=O)[C@@](Nc1ccc(C=O)cc1)(OC)[C@@](OC)(c1ccc([N+](=O)[O-])cc1)O2 | > 10 | > 10 | > 10 | > 10 | > 10 | > 10 | > 10 | > 10 | > 10 | > 10 | – | > 10 | > 10
CC(C)C1=CC23CCC4C(C)(C(=O)O)CCCC4(C)C2CC1C1C(=O)N(c2cccc(N4C(=O)C5C6CC7C8(C)CCCC(C)(C(=O)O)C8CCC7(C=C6C(C)C)C5C4=O)c2)C(=O)C13 (stereo not drawn) | 23.8 | 22.7 | – | 16 | 40.1 | 32.5 | > 100 | 22.7 | 28.6 | – | 29.7 | – | –
COc1ccc(NS(=O)(=O)c2ccc(N=C3C=C(Nc4ccc(S(=O)(=O)Nc5ccc(OC)nn5)cc4)C(=O)c4ccccc43)cc2)nn1 | 32.5 | – | 30.4 | – | > 100 | 34.2 | 50.4 | 34.8 | 35 | 35.8 | 31.8 | – | > 100
C=CC(C)(C)n1cc(C2=C(O)C(=O)C(c3c(CC=C(C)C)[nH]c4ccccc34)=C(O)C2=O)c2ccccc21 | 3.23 | 5.46 | 5.38 | – | 9.51 | 3.64 | 11.8 | 4.57 | 4.1 | 9.3 | 6.18 | 1.91 | –
C[C@H](CO)C1=CC(C#C[Si](C)(C)C)N(C(=O)Oc2ccccc2)c2ccccc21 (stereo partly drawn) | 24.3 | 31.7 | 33.5 | – | 44 | 34.6 | 21.8 | 42.9 | 26.6 | 28.3 | 15.7 | – | > 100
N#Cc1c2ccc([N+](=O)[O-])cc2c(=O)n2c1sc1ccccc12 | 37.7 | > 100 | > 100 | – | – | 47.5 | 98.8 | > 100 | > 100 | > 100 | – | > 100 | 40.5
Cc1ccc(N2C3=C(CC4=C2CC(C)(C)CC4=O)C(=O)CC(C)(C)C3)cc1 | > 100 | > 100 | > 100 | > 100 | > 100 | > 100 | > 100 | > 100 | > 100 | > 100 | – | > 100 | > 100
CC(C)(C)OC(=O)N1CCC(NC(=O)NC2CCN(C(=O)OC(C)(C)C)CC2)CC1 | – | – | > 100 | > 100 | – | – | > 100 | > 100 | – | > 100 | > 100 | 12.6 | > 100
O=c1oc2ccccc2n1CCCn1c(=O)oc2ccccc21 | > 100 | > 100 | > 100 | > 100 | > 100 | > 100 | – | > 100 | > 100 | > 100 | – | > 100 | > 100
C/C(=N\Nc1nc2ccccc2o1)c1cc2ccccc2cn1 | > 32.7 | 39.7 | – | > 33.7 | > 46.3 | – | 8.25 | – | 22.5 | – | – | 3.23 | > 20.7
CN=C(N)NC | > 100 | – | > 100 | – | > 100 | > 100 | > 100 | > 100 | > 100 | > 100 | > 100 | – | > 100
COc1cc(OC2OC(CO)C(O)C(O)C2O)c2c(c1)O[C@@H]1[C@H](O)Oc3cc(OC)c(OC)cc3[C@]1(O)C2=O (stereo partly drawn) | > 25 | > 25 | > 25 | > 25 | > 25 | > 25 | > 25 | > 25 | > 25 | > 25 | > 25 | – | > 25
O=C1/C(=C\c2cccc(Oc3ccccc3)c2)SC(c2ccccc2)N1c1cccc(Cl)c1 (stereo not drawn) | > 100 | > 100 | > 100 | – | > 100 | > 100 | > 100 | > 100 | > 100 | > 100 | – | > 100 | > 100
CCOc1ncnc2ccc(Cl)c(I)c12 | > 100 | – | > 100 | – | – | – | > 100 | > 100 | > 100 | > 100 | – | – | > 100
CCN(CCCl)c1cc(CN(C)C)cc(NC(=O)c2ccc(C(=O)Nc3ccccc3)cc2)c1 | 2.27 | 6.92 | 0.634 | 2.79 | 1.78 | 5.92 | 1.87 | 6.34 | – | 3.27 | 0.317 | – | 3.14
COC(=O)CCC(NC(=O)C(CCC(=O)OC)NC(=O)C(CCC(=O)OC)NC(=O)C(CCC(=O)OC)NC(=O)C(CCC(=O)OC)NC(=O)C(Cc1ccc([N+](=O)[O-])cc1)NC(=O)C(CCC(=O)OC)NC(=O)C(CCC(=O)OC)NC(=O)C(CCC(=O)OC)NC(=O)C(CCC(=O)OC)NC(=O)C(CCC(=O)OC)NC(C)=O)C(N)=O (stereo not drawn) (Ac-E(OMe)E(OMe)E(OMe)E(OMe)E(OMe)[Phe(4-NO2)]E(OMe)E(OMe)E(OMe)E(OMe)E(OMe)-NH2; configuration not given here) | > 100 | > 100 | > 100 | > 100 | > 100 | – | > 100 | > 100 | > 100 | > 100 | > 100 | – | > 100

Source: PubChem BioAssay (NCI)
